Structures can show the parent of a compound that is named as a salt.
target: T1, human IDO1 (Homo sapiens, UniProt P14902); experiment: IDO inhibition assay in HEK293 cells stably expressing human IDO1 (kynurenine production, Ehrlich reagent, absorbance 490 nm); format: cell-based; details: 20 hours incubation with compound, 500 nM reference standard = 100% inhibition, read-out: IDO1 HEK Human IC50
T1 construct: expressed in transfected cells
Procedure: HEK293 cells were transfected with a pCDNA-based mammalian expression vector harboring human IDO1 cDNA (NM 002164.2) by electroporation. They were cultured in medium (DMEM with 10% FBS) containing 1 mg/ml G418 for two weeks. Clones of HEK293 cells that stably expressed human IDO1 protein were selected and expanded for IDO inhibition assay.
The human IDO1/HEK293 cells were seeded at 10,000 cells per 50 μL per well with RPMI/phenol red free media contains 10% FBS in a 384-well black wall clear bottom tissue culture plate (Matrix Technologies LLC) 100 nL of certain concentration of compound was then added to each well using ECHO liquid handling systems. The cells were incubated for 20 hours in 37° C. incubator with 5% CO2.
The compound treatments were stopped by adding trichloroacetic acid (Sigma-Aldrich) to a final concentration at 0.2%. The cell plate was further incubated at 50° C. for 30 minute. The equal volume supernatant (20 μL) and 0.2% (w/v) Ehrlich reagent (4-dimethylaminobenzaldehyde, Sigma-Aldrich) in glacial acetic acid were mixed in a new clear bottom 384-well plate. This plate was then incubated at RT for 30 minute. The absorbance at 490 nm was measured on Envision plate reader.
Compound IC50 values were calculated using the counts of 500 nM of a reference standard treatment as one hundred percent inhibition, and counts of no compound but DMSO treatment as zero percent inhibition.

T1 sequence (P14902 whole entry): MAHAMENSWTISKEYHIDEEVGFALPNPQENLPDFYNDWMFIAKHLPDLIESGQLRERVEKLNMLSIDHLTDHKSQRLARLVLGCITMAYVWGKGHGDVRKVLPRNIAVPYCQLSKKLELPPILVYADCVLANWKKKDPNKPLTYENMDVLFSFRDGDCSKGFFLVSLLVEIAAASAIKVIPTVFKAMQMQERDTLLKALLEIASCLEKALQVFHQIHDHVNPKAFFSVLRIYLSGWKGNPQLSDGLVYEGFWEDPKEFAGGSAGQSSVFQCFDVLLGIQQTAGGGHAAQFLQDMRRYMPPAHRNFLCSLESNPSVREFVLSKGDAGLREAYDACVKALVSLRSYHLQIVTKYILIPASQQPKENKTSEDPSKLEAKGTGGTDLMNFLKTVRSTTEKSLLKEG

Row | Compound | IC50 [nM]
1 | CCCN(Cc1ccccc1)c1cc(Nc2nc(-c3ccccc3)cs2)cc(-c2ccccc2-c2nnn[nH]2)n1 [Example 59, 6-(2-(1H-tetrazol-5-yl)phenyl)-N2-benzyl-N4-(4-phenylthiazol-2-yl)-N2-propylpyridine-2,4-diamine] | 139
2 | CCCN(Cc1ccccc1)c1cc(Nc2nnc(C)s2)cc(-c2ccccc2-c2nnn[nH]2)n1 [Example 60, 6-(2-(1H-tetrazol-5-yl)phenyl)-N2-benzyl-N4-(5-methyl-1,3,4-thiadiazol-2-yl)-N2-propylpyridine-2,4-diamine] | 831
3 | CCCN(Cc1ccccc1)c1cc(Nc2nc3ccc(F)cc3s2)cc(-c2ccccc2-c2nnn[nH]2)n1 [Example 62, 6-(2-(1H-tetrazol-5-yl)phenyl)-N2-benzyl-N4-(6-fluorobenzo[d]thiazol-2-yl)-N2-propylpyridine-2,4-diamine] | 56.8
4 | CCCN(CC1CC1)c1nc(NC(=O)Cc2ccc(C)cc2)cc(-c2ccccc2-c2nnn[nH]2)n1 [Example 64, N-(6-(2-(1H-tetrazol-5-yl)phenyl)-2-((cyclopropylmethyl)(propyl)amino)pyrimidin-4-yl)-2-(p-tolyl)acetamide, TFA] | 161
5 | CCCN(CC1CC1)c1nc(NC(=O)Nc2ccc(C)cc2)cc(-c2ccccc2-c2nnn[nH]2)n1 [Example 66, 1-(6-(2-(1H-tetrazol-5-yl)phenyl)-2-((cyclopropylmethyl)(propyl)amino)pyrimidin-4-yl)-3-(p-tolyl)urea, TFA] | 440
6 | Cc1ccc(CC(=O)Nc2cc(-c3ccccc3-c3nnn[nH]3)nc(N3CCCc4ccccc43)c2)cc1 [Example 68, N-(2-(2-(1H-tetrazol-5-yl)phenyl)-6-(3,4-dihydroquinolin-1(2H)-yl)pyridin-4-yl)-2-(p-tolyl)acetamide, TFA] | 324
7 | CC(C)CN(Cc1ccccc1)c1cc(NC(=O)Nc2ccc(F)cc2)cc(-c2ccccc2-c2nnn[nH]2)n1 [Example 69, 1-(2-(2-(1H-tetrazol-5-yl)phenyl)-6-(benzyl(isobutyl)amino)pyridin-4-yl)-3-(4-fluorophenyl)urea, TFA] | 134
8 | CCCN(Cc1ccccc1)c1cc(NC(=O)Nc2ccc(F)cc2F)cc(-c2ccccc2-c2nnn[nH]2)n1 [Example 71, 1-(2-(2-(1H-tetrazol-5-yl)phenyl)-6-(benzyl(propyl)amino)pyridin-4-yl)-3-(2,4-difluorophenyl)urea, TFA] | 32.2
9 | CCCN(Cc1ccccc1)c1cc(NC(=O)Nc2ccc(Cl)cc2F)cc(-c2ccccc2-c2nnn[nH]2)n1 [Example 72, 1-(2-(2-(1H-tetrazol-5-yl)phenyl)-6-(benzyl(propyl)amino)pyridin-4-yl)-3-(4-chloro-2-fluorophenyl)urea, TFA] | 8.5
10 | CCCN(Cc1ccc(F)cc1)c1cc(NC(=O)Cc2ccc(C)cc2F)cc(-c2ccccc2-c2nnn[nH]2)n1 [Example 75, N-(2-(2-(1H-tetrazol-5-yl)phenyl)-6-((4-fluorobenzyl)(propyl)amino)pyridin-4-yl)-2-(2-fluoro-4-methylphenyl)acetamide, TFA] | 27.9
11 | Cc1ccc(NC(=O)Nc2cc(-c3ccccc3-c3nnn[nH]3)nc(N(Cc3ccc(F)cc3)CC(C)C)c2)cc1 [Example 78, 1-(2-(2-(1H-tetrazol-5-yl)phenyl)-6-((4-fluorobenzyl)(isobutyl)amino)pyridin-4-yl)-3-(p-tolyl)urea, TFA] | 8.2
12 | Cc1ccc(CC(=O)Nc2cc(-c3ccccc3-c3nnn[nH]3)nc(N(Cc3ccccc3)CC(C)C)c2)c(F)c1 [Example 79, N-(2-(2-(1H-tetrazol-5-yl)phenyl)-6-(benzyl(isobutyl)amino)pyridin-4-yl)-2-(2-fluoro-4-methylphenyl)acetamide, TFA] | 18.3
13 | CC(C)CN(Cc1ccccc1)c1cc(NC(=O)Cc2ccc(F)cc2)cc(-c2ccccc2-c2nnn[nH]2)n1 [Example 80, N-(2-(2-(1H-tetrazol-5-yl)phenyl)-6-(benzyl(isobutyl)amino)pyridin-4-yl)-2-(4-fluorophenyl)acetamide, TFA] | 350
14 | CCCN(CC1CC1)c1cc(NC(=O)Nc2ccc(Cl)cc2Cl)cc(-c2ccccc2-c2nnn[nH]2)n1 [Example 83, 1-(2-(2-(1H-tetrazol-5-yl)phenyl)-6-((cyclopropylmethyl)(propyl)amino)pyridin-4-yl)-3-(2,4-dichlorophenyl)urea, TFA] | 158
15 | CCCN(Cc1ccc(F)cc1)c1cc(NC(=O)Cc2ccc(C)cc2)cc(-c2ccccc2-c2nnn[nH]2)n1 [Example 85, N-(2-(2-(1H-tetrazol-5-yl)phenyl)-6-((4-fluorobenzyl)(propyl)amino)pyridin-4-yl)-2-(p-tolyl)acetamide, TFA] | 89.8
16 | CCCN(Cc1ccc(F)cc1)c1cc(NC(=O)Nc2ccc(Cl)cc2Cl)cc(-c2ccccc2-c2nnn[nH]2)n1 [Example 86, 1-(2-(2-(1H-tetrazol-5-yl)phenyl)-6-((4-fluorobenzyl)(propyl)amino)pyridin-4-yl)-3-(2,4-dichlorophenyl)urea] | 8.6
17 | CCCN(Cc1ccccc1)c1cc(NC(=O)Nc2ccccc2F)cc(-c2cc(C)ccc2-c2nnn[nH]2)n1 [Example 88, 1-(2-(benzyl(propyl)amino)-6-(5-methyl-2-(1H-tetrazol-5-yl)phenyl)pyridin-4-yl)-3-(2-fluorophenyl)urea, TFA] | 109
18 | Cc1ccc(CC(=O)Nc2cc(-c3ccccc3-c3nnn[nH]3)nc(N(Cc3ccc(F)cc3)CC(C)C)c2)cc1 [Example 90, N-(2-(2-(1H-tetrazol-5-yl)phenyl)-6-((4-fluorobenzyl)(isobutyl)amino)pyridin-4-yl)-2-(p-tolyl)acetamide, TFA] | 40.9

The remaining compounds from weak to strong by IC50, led by results:

Row | IC50 [nM] | Compound
19 | 4530 | CCCN(CC1CC1)c1nc(NC(=O)Nc2ccc(F)cc2)cc(-c2ccccc2-c2nnn[nH]2)n1 [Example 65, 1-(6-(2-(1H-tetrazol-5-yl)phenyl)-2-((cyclopropylmethyl)(propyl)amino)pyrimidin-4-yl)-3-(4-fluorophenyl)urea, TFA]
20 | 2470 | CCCN(CC1CC1)c1nc(NC(=O)Nc2ccc(OC(F)(F)F)cc2)cc(-c2ccccc2-c2nnn[nH]2)n1 [Example 67, 1-(6-(2-(1H-tetrazol-5-yl)phenyl)-2-((cyclopropylmethyl) (propyl)amino)pyrimidin-4-yl)-3-(4-(trifluoromethoxy)phenyl)urea]
21 | 2090 | Cc1ccc(CC(=O)Nc2cc(-c3ccccc3-c3nnn[nH]3)nc(N(CC(C)C)C3CCOCC3)c2)cc1 [Example 77, N-(2-(2-(1H-tetrazol-5-yl)phenyl)-6-(isobutyl(tetrahydro-2H-pyran-4-yl)amino)pyridin-4-yl)-2-(p-tolyl)acetamide, TFA]
22 | 998 | Cc1ccc(CC(=O)Nc2cc(-c3ccccc3-c3nnn[nH]3)nc(N3CCN(Cc4ccccc4)C(=O)C3)c2)cc1 [Example 76, N-(2-(2-(1H-tetrazol-5-yl)phenyl)-6-(4-benzyl-3-oxopiperazin-1-yl)pyridin-4-yl)-2-(p-tolyl)acetamide, TFA]
23 | 731 | CCCN(CC1CC1)c1cc(NC(=O)Cc2ccc(C)cc2F)cc(-c2ccccc2-c2nnn[nH]2)n1 [Example 82, N-(2-(2-(1H-tetrazol-5-yl)phenyl)-6-((cyclopropylmethyl)(propyl)amino)pyridin-4)-2-(2-fluoro-4-methylphenyl)acetamide, TFA]
24 | 446 | CCCN(Cc1ccccc1)c1cc(Nc2ccn(C)n2)cc(-c2ccccc2-c2nnn[nH]2)n1 [Example 61, 6-(2-(1H-tetrazol-5-yl)phenyl)-N2-benzyl-N4-(1-methyl-1H-pyrazol-3-yl)-N2-propylpyridine-2,4-diamine]
25 | 422 | CCCN(CC1CC1)c1cc(NC(=O)Cc2ccc(F)cc2F)cc(-c2ccccc2-c2nnn[nH]2)n1 [Example 70, N-(2-(2-(1H-tetrazol-5-yl)phenyl)-6-((cyclopropylmethyl)(propyl)amino)pyridin-4-yl)-2-(2,4-difluorophenyl)acetamide, TFA]
26 | 373 | CCCN(CC1CC1)c1cc(Nc2ncc(C(F)(F)F)cn2)cc(-c2ccccc2-c2nnn[nH]2)n1 [Example 84]
27 | 334 | CCCN(CC1CC1)c1cc(NC(=O)Cc2ccc(F)cc2)cc(-c2ccccc2-c2nnn[nH]2)n1 [Example 73, N-(2-(2-(1H-tetrazol-5-yl)phenyl)-6-((cyclopropylmethyl)(propyl)amino)pyridin-4-yl)-2-(4-fluorophenyl)acetamide, TFA]
28 | 150 | Cc1ccc(CC(=O)Nc2cc(-c3cc(F)ccc3-c3nnn[nH]3)nc(N(Cc3ccccc3)CC(C)C)c2)cc1 [Example 89, N-(2-(benzyl(isobutyl)amino)-6-(5-fluoro-2-(1H-tetrazol-5-yl)phenyl)pyridin-4-yl)-2-(p-tolyl)acetamide, TFA]
29 | 75.6 | CC(C)CN(Cc1ccccc1)c1cc(Nc2ncc(C(F)(F)F)cn2)cc(-c2ccccc2-c2nnn[nH]2)n1 [Example 74, 6-(2-(1H-tetrazol-5-yl)phenyl)-N2-benzyl-N2-isobutyl-N4-(5-(trifluoromethyl)pyrimidin-2-yl)pyridine-2,4-diamine, TFA]
30 | 40.7 | Cc1ccc(CC(=O)Nc2cc(-c3ccccc3-c3nnn[nH]3)nc(N(Cc3ccccc3)CC(C)C)c2)cc1 [Example 87, N-(2-(2-(1H-tetrazol-5-yl)phenyl)-6-(benzyl(isobutyl)amino)pyridin-4-yl)-2-(p-tolyl)acetamide, TFA]
